A word on the IC50: it is the concentration needed to halve the response being measured. A high value points to a need for much substance.

The target of one data set is CYP2C9 (Homo sapiens, UniProt P11712). Briefly: In vitro inhibition of human cytochrome P450 enzymes: CYP2C9 (dibenzylfluorescein fluorometric assay). On the procedure: (§1) In Vitro Inhibition of Human Cytochrome P45 Enzymes
(§2) Solution A: NADPH-Regenerating System
(§3) To a glass tube on ice were added sequentially: Water (8 mL) in NADP+ (20 mg), glucose-6-phosphate (20 mg), magnesium chloride hexahydrate (13.3 mg) and glucose-6-phosphate dehydrogenase (60 units).
To a glass tube on ice were added sequentially: 0.5 M KH2PO4 (pH 7.4, 2.4 mL), water (8.988 mL), CYP2C9 (600 μL of 1 picomol/microliter), and dibenzylfluorescein (2 mM in 100% acetonitrile, 12 microliter).
Solution A was transferred to a 96-well black plate (80 microliter per well), followed by various concentrations of a solution of Compound in 10% acetonitrile-water (20 microliter per well). The reaction was initiated by adding 100 microliter of solution B to each well of the 96-well plate. The plate was incubated for 40 minutes at 37° C. in the dark. The reaction was stopped by adding 75 microliters of stop buffer (2 N NaOH) to each well, and incubating at 37° C. for 2 hours. The end point was measured in a fluorometer plate reader at λex=485 nm and λem=538 nm.

A further data set deals with CYP3A4 (Homo sapiens, UniProt P08684). The note with it: 10 min, pH 7.4. The protocol:
as §1, §2, §3
To a glass tube on ice were added sequentially: 0.5 M KH2PO4 (pH 7.4, 9.6 mL), water (2.328 mL), CYP3A4 (60 μL of 1 picomol/microliter), and dibenzylfluorescein (2 mM in 100% acetonitrile, 12 microliter).
Solution A was transferred to a 96-well black plate (80 microliter per well), followed by various concentrations of a solution of Compound in 20% acetonitrile-water (20 microliter per well). The reaction was initiated by adding 100 microliter of solution B to each well of the 96-well plate. The plate was incubated for 10 minutes at 37° C. in the dark. […] The end point was measured in a fluorometer plate reader at λex=485 nm and λem=538 nm.

Chain of CYP2C9 (P11712 whole entry): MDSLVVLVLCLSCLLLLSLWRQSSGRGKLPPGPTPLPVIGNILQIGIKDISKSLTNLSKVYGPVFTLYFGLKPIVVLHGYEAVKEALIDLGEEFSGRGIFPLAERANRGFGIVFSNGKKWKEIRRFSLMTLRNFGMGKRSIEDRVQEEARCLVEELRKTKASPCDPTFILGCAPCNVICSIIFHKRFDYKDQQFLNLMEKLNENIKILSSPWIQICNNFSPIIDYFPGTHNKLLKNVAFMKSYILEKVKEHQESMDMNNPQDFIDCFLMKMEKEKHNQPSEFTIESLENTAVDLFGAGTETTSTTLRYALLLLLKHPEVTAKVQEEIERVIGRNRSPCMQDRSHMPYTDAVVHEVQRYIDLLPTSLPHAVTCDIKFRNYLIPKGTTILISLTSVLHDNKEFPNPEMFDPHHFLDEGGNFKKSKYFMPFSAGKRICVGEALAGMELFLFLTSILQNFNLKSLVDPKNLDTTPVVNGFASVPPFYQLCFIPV
Chain of CYP3A4 (P08684 whole entry): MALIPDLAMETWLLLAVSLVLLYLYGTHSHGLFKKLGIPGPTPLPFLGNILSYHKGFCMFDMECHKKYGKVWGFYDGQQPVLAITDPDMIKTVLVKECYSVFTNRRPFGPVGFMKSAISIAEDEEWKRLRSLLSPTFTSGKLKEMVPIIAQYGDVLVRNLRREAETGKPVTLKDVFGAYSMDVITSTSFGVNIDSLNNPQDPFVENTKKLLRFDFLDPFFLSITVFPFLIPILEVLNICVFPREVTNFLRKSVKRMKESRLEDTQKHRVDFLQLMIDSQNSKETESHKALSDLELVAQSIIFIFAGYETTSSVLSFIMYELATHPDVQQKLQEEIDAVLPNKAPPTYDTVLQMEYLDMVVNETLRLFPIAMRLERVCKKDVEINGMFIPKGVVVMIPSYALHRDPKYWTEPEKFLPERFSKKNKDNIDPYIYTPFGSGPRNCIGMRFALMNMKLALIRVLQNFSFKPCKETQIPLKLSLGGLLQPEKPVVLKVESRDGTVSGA

On to `Cc1cc2c(cc1CC(=O)c1sccc1S(=O)(=O)Nc1onc(C)c1Cl)OCO2` [sixtaxsentan, 2-[2-(6-Methyl-benzo[1,3]dioxol-5-yl)-acetyl]-thiophene-3-sulfonic acid (4-chloro-3-methyl-isoxazol-5-yl)-amide, reference compound], for which the IC50 against CYP2C9 was found to be 100 nM.
As to `[2H]C1([2H])Oc2cc(C)c(CC(=O)c3sccc3S(=O)(=O)Nc3onc(C)c3Cl)cc2O1` [Example 2, d2-2-[2-(6-Methyl-benzo[1,3]dioxol-5-yl)-acetyl]-thiophene-3-sulfonic acid (4-chloro-3-methyl-isoxazol-5-yl)-amide], the “times the amount of deuterated compound to inhibit CYP3A4 as compared to the non-isotopically enriched drug” value at CYP3A4 stood at 2.3 times. Half-maximal inhibition against CYP2C9 (IC50) required 320 nM. On CYP2C9 (human, 40 min, pH 7.4), the “times the amount of deuterated compound to inhibit CYP2C9 as compared to the non-isotopically enriched drug” value is reported as 3.2 times.

The values above are taken from patent publication US7863308B2, “Substituted thiophenes” (Auspex Pharmaceuticals, Inc., priority 2007, dated 2011).
